Data: patent publication US20170315126A1, “METHOD FOR SCREENING COMPOUND SPECIFICALLY SUPPRESSING FORMATION OF CAVEOLAE OF CANCER CELLS, SCREENING KIT, VECTOR AND TRANSFORMANT TO BE USED IN KIT, AND METHOD FOR SELECTING PATIENT FOR WHOM MOLECULARLY TARGETED DRUG IS INDICATED” (NATIONAL UNIVERSITY CORPORATION NAGOYA INSTITUTE OF …, priority 2014, published 2017)

Experiments:
Assay type in all cases: cell-based, human
ROR1 = experiment: Western blotting of changes over time in ROR1 expression after siROR1 transfection; conditions: NCI-H1975; 24 hours after transfection
Procedure: (§1) Western blotting analysis and IP-WB analysis were conducted by the standard methods using an Immobilon-P filter (manufactured by Millipore Corp.) and an enhanced chemiluminescence system (manufactured by GE Healthcare Inc.). pCMVpuro-Cavin-1-WT was coexpressed with various ROR1 expression constructs such as the wild type (WT), TKΔ473-564 (TKΔ1), TK564-655 (TKΔ2), TKΔ655-746 (TKΔ3), TKΔ473-655 (TKΔ1+×2), TKΔ564-746 (TKΔ2+Δ3), and TKΔ473-746 (TKA1+Δ2+A3) to identify the binding site of ROR1 and Cavin-1. pCMVpuro-CAV1-WT was coexpressed with ROR1 expression constructs such as the wild type (WT), TKΔ473-564 (TKΔ1), TKΔ564-655 (TKΔ2), TKΔ655-746 (TKΔ3), ST1Δ748-782 (ΔST1), PΔ784-851 (ΔP), and ST2Δ853 to 876 (ΔST2) to identify the binding site of ROR1 and CAV1. For these, the cells were recovered 24 hours after transfection by Fugene6 (Promega) using COS-7 cells, and IP-WB analysis was conducted.
(§2) Transfection of the siRNA (20 nM each) was conducted in accordance with the manufacturer's instruction manual using lipofectamine RNAiMAX (manufactured by Invitrogen). […] Cells were also recovered 120 hours after transfection for analysis by colorimetry to measure cell proliferation.

[1] = system: caveolae of NCI-H1975 cells; experiment: Electron microscope analysis of caveolae by rapid freezing/freeze-fracture replica labeling; conditions: 72 hours after transfection, n=18 regions
Procedure: 20 μm thick gold foil was placed in a culture dish, and NCI-H1975 cells, which are a pulmonary adenocarcinoma cell line, were cultured on top. Transfection of siControl or siROR1 was conducted. Rapid freezing was conducted using a high-pressure freezing machine (Leica Inc.) 72 hours after transfection. Freeze-fracture replicas were prepared using a BAF400 apparatus (Baltec Co.), and labeled by mouse anti-CAV2 antibody (BD Transduction Co.) after treatment by SDS. A second antibody reaction was then conducted using 10 nm gold colloid-conjugated goat anti-mouse IgG antibody (British Biocell International Co.), and the cells were examined by a JEM-1011 electron microscope. For caveolae distribution density measurement, randomly selected regions under the electron microscope (18 random cell membrane regions of 17-50 μm) were measured, and the cell membrane region of each electron micrograph was measured using ImageJ.

CAV1 [2] = experiment: Western blotting of CAV1 after siROR1 treatment in cells expressing ROR1 wild type or mutants with silent mutation; conditions: three days
Procedure: In vitro mutagenesis was conducted using KOD-plus-DNA polymerase (Toyobo), and pCMVpuro-ROR1-WTm (siROR1) and pCMVpuro-ROR1-KDm (siROR1) including silent mutations for siROR1 were prepared. Following primer of not involving amino acid substitution was used for production.
Wild type ROR1 (ROR1-WT), wild type ROR1 with an added silent mutation for siROR1 (ROR1-WTm), or kinase activity-deficient ROR1 with a silent mutation for siROR1 added (ROR1-KDm) were transfected into NCI-H1975 cells. Selection by puromycin (1.5 μg/mL) was performed after 24 hours, and the single clones were collected, and stable clones that expressed the respective ROR1 (constitutive ROR1-expressing cell lines) were prepared. These stable clones were then treated by siControl or siROR1, and the cells were recovered after three days and Western blotting analysis was conducted.
In vitro mutagenesis was conducted using KOD-plus-DNA polymerase (Toyobo), and pCMVpuro-ROR1-WTm (siROR1) and pCMVpuro-ROR1-TKA2+TKA3m (siROR1) including silent mutations for siROR1 were prepared. Following primer of not involving amino acid substitution was used for production.
Wild type ROR1 (ROR1-WT), wild type ROR1 with an added silent mutation for siROR1 (ROR1-WTm), or cavin-1 binding region-deficient ROR1 with an added silent mutation for siROR1 (ROR1-TKA2+TKA3m) were transfected into PC-9 cells. Selection by puromycin (1.0 μg/mL) was performed after 24 hours, and the cells were recovered as bulk clones and reseeded in 6-well plates. The cells were then treated by siControl or siROR1, recovered after three days, and Western blotting analysis was conducted.
In vitro mutagenesis was conducted using KOD-plus-DNA polymerase (Toyobo), and pCMVpuro-ROR1-WTm (siROR1) and pCMVpuro-ROR1-AS/T2m (siROR1) including silent mutations for siROR1 were prepared. Following primer of not involving amino acid substitution was used for production.
Wild type ROR1 (ROR1-WT), wild type ROR1 with an added silent mutation for siROR1 (ROR1-WTm), or CAV1 binding region-deficient ROR1 with an added silent mutation for siROR1 (ROR1-ΔS/T2m) were transfected into PC-9 cells. Selection by puromycin (1.0 μg/mL) was performed after 24 hours, and the cells were recovered as bulk clones and reseeded in 6-well plates. The cells were then treated by siControl or siROR1, recovered after three days, and Western blotting analysis was conducted.

CAV1 and Cavin-1 = experiment: IP-WB analysis of binding of endogenous CAV1 and Cavin-1 under ROR1 silencing; conditions: NCI-H1975 cell extract 24 hours after transfection
Procedure: as §1
In addition, IP-WB analysis was conducted after suspending the cells in lysis buffer containing octyl glucoside (10 mM Tris-HCl (pH 8.0), 0.15 M NaCl, 5 mM EDTA, 1% Triton X-100, 60 mM octyl glucoside) using NCI-H1975, NCI-H358, and SK-LU-1 cell lines, which are pulmonary adenocarcinoma cell lines, to confirm the binding of ROR1 and Cavin-1, ROR1 and CAV1, or Cavin-1 and IGF-IR.

CAV1 [3] = experiment: Western blotting of CAV1 expression after siRNA transfection in pulmonary adenocarcinoma cell lines
Procedure: as §1, §2

siROR1: RNA oligomer for RNAi against human ROR1, 5′-CAGCAAUGGAUGGAAUUUCAA-3′ (SEQ ID No: 13) (listed as RNA, further chemistry not given here)
ROR1 expression (Western blot) (ROR1): lowered the expression of ROR1 | number of normal caveolae in random regions on the cell membrane [1]: decreases significantly | CAV1 expression (Western blot) (CAV1 [2]; NCI-H1975 stable clones expressing ROR1-KDm (kinase activity-deficient, silent mutation)): downregulation of CAV1 was not seen | CAV1 expression (Western blot) (CAV1 [2]; NCI-H1975 stable clones expressing ROR1-WT): downregulation of CAV1 | CAV1 expression (Western blot) (CAV1 [2]; NCI-H1975 stable clones expressing ROR1-WTm (silent mutation against siROR1)): downregulation of CAV1 was not seen | CAV1 expression (Western blot) (CAV1 [2]; PC-9 transfected with ROR1-AS/T2m (CAV1 binding region deleted, silent mutation)): expression of CAV1 was lowered | CAV1 expression (Western blot) (CAV1 [2]; PC-9 transfected with ROR1-TKA2+TKA3m (cavin-1 binding region deleted, silent mutation)): expression of CAV1 was lowered | binding of endogenous CAV1 and Cavin-1 (IP-WB) (CAV1 and Cavin-1): decreases the binding | CAV1 expression (Western blot) (CAV1 [3]; NCI-H441, NCI-H358 and PC-9, siRNA 20 nM, 72 hours after transfection): downregulation of CAV1 was found | CAV1 expression (Western blot) (CAV1 [3]; NCI-H1975, after 48 hours): downregulation of CAV1 was seen
